A word on the Ki: it is the equilibrium dissociation constant of an inhibitor or competing ligand from its target. Read a high Ki as a looser hold on the target.

human σ1 receptor, sequence (Q99720 whole entry): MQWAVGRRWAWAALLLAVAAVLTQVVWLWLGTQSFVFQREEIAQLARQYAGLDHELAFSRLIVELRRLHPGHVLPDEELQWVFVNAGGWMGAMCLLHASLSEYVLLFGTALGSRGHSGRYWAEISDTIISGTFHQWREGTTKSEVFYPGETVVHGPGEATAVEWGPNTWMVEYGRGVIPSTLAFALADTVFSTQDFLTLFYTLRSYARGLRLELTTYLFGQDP

This assay addresses human σ1 receptor (Homo sapiens (Human), UniProt Q99720). Put plainly: Human σ1 receptor radioligand assay. The note with it: transfected HEK-293 membranes, [3H](+)-pentazocine radioligand. The format is binding. The protocol:
Human σ1 Receptor Radioligand Assay
To investigate binding properties of test compounds to human σ1 receptor, transfected HEK-293 membranes and [^3H](+)-pentazocine (Perkin Elmer, NET-1056), as the radioligand, were used. The assay was carried out with 7 μg of membrane suspension, 5 nM of [^3H](+)-pentazocine in either absence or presence of either buffer or 10 μM Haloperidol for total and non-specific binding, respectively. Binding buffer contained Tris-HCl 50 mM at pH 8. Plates were incubated at 37° C. for 120 minutes. After the incubation period, the reaction mix was then transferred to MultiScreen HTS, FC plates (Millipore), filtered and plates were washed 3 times with ice-cold 10 mM Tris-HCL (pH7.4). Filters were dried and counted at approximately 40% efficiency in a MicroBeta scintillation counter (Perkin-Elmer) using EcoScint liquid scintillation cocktail
In turn, `CC(C)N1CC2(CN(CCC(C)(C)C)C2)O[C@@H](C)C1=O` [Example 44, (S)-2-(3,3-dimethylbutyl)-8-isopropyl-6-methyl-5-oxa-2,8-diazaspiro[3.5]nonan-7-one] displayed a Ki of at least 0.5 µM.

`CC(C)N1CC2(CN(CCC(C)(C)C)C2)O[C@H](C)C1=O` [Example 45, (R)-2-(3,3-dimethylbutyl)-8-isopropyl-6-methyl-5-oxa-2,8-diazaspiro[3.5]nonan-7-one] had a Ki of at least 0.5 µM.

As to `CCN1C[C@@]2(CCCN(CCC(C)C)CC2)O[C@H](C)C1=O` [Example 46, (2R,6S)-4-ethyl-9-isopentyl-2-methyl-1-oxa-4,9-diazaspiro[5.6]dodecan-3-one], the Ki was at least 0.5 µM.

`CCN1C[C@]2(CCCN(CCC(C)C)CC2)O[C@H](C)C1=O` [Example 47, (2R,6R)-4-ethyl-9-isopentyl-2-methyl-1-oxa-4,9-diazaspiro[5.6]dodecan-3-one] yielded a Ki of at least 0.5 µM.

Compound `CCN1C[C@@]2(CCCN(CCC(C)C)CC2)O[C@@H](C)C1=O` [Example 48, (2S,6S)-4-ethyl-9-isopentyl-2-methyl-1-oxa-4,9-diazaspiro[5.6]dodecan-3-one] returned a Ki of at least 0.5 µM.

`CCN1C[C@]2(CCCN(CCC(C)C)CC2)O[C@@H](C)C1=O` [Example 49, (2S,6R)-4-ethyl-9-isopentyl-2-methyl-1-oxa-4,9-diazaspiro[5.6]dodecan-3-one] had a Ki of at least 0.5 µM.

As for `CC(C)OCCN1CCCC2(CC1)CN(C(=O)c1ccccc1)CC(C)(C)O2` (centres unmarked) [Example 50, (9-(2-isopropoxyethyl)-2,2-dimethyl-1-oxa-4,9-diazaspiro[5.6]dodecan-4-yl)(phenyl)methanone], the Ki was at least 0.5 µM.

`O=C(c1ccccc1)N1CC2(CC2)OC2(CCCN(Cc3ccccc3)C2)C1` (centres unmarked) [Example 55, (7-benzyl-4-oxa-7,12-diazadispiro[2.1.5.3]tridecan-12-yl)(phenyl)methanone]: the Ki is at least 0.5 µM.

Turning to `O=C(c1ccccc1)N1CC2(CCCN(Cc3ccccc3)CC2)OC2(CC2)C1` (centres unmarked) [Example 56, (8-benzyl-4-oxa-8,13-diazadispiro[2.1.6.3]tetradecan-13-yl)(phenyl)methanone], the Ki was under 0.1 µM.

`CCN1CC2(CCCN(Cc3ccccc3)CC2)OC(C)(C)C1=O` (centres unmarked) [Example 57, 9-benzyl-4-ethyl-2,2-dimethyl-1-oxa-4,9-diazaspiro[5.6]dodecan-3-one] yielded a Ki of under 0.1 µM.

On to `CCN1CC2(CCCN(Cc3ccc(C#N)cc3)CC2)OC(C)(C)C1=O` (centres unmarked) [Example 58, 4-((4-ethyl-2,2-dimethyl-3-oxo-1-oxa-4,9-diazaspiro[5.6]dodecan-9-yl)methyl)benzonitrile], for which the Ki was at least 0.5 µM.

The compound `CCN1C[C@@]2(CCCN(Cc3ccccc3)CC2)O[C@H](C)C1=O` [Example 59, (2R,6S)-9-benzyl-4-ethyl-2-methyl-1-oxa-4,9-diazaspiro[5.6]dodecan-3-one] yielded a Ki of at least 0.5 µM.

Compound `CCN1C[C@]2(CCCN(Cc3ccccc3)CC2)O[C@H](C)C1=O` [Example 60, (2R,6R)-9-benzyl-4-ethyl-2-methyl-1-oxa-4,9-diazaspiro[5.6]dodecan-3-one] yielded a Ki of at least 0.5 µM.

Compound `CCN1C[C@@]2(CCCN(Cc3ccccc3)CC2)O[C@@H](C)C1=O` [Example 61, (2S,6S)-9-benzyl-4-ethyl-2-methyl-1-oxa-4,9-diazaspiro[5.6]dodecan-3-one] registered a Ki of at least 0.5 µM.

In the case of `CCN1C[C@]2(CCCN(Cc3ccccc3)CC2)O[C@@H](C)C1=O` [Example 62, (2S,6R)-9-benzyl-4-ethyl-2-methyl-1-oxa-4,9-diazaspiro[5.6]dodecan-3-one], the Ki was at least 0.5 µM.

For `CCN1C[C@@]2(CCCN(Cc3ccc(F)cc3)CC2)O[C@H](C)C1=O` [Example 63, (2R,6S)-4-ethyl-9-(4-fluorobenzyl)-2-methyl-1-oxa-4,9-diazaspiro[5.6]dodecan-3-one], the Ki was at least 0.5 µM.

In the case of `CCN1C[C@]2(CCCN(Cc3ccc(F)cc3)CC2)O[C@H](C)C1=O` [Example 64, (2R,6R)-4-ethyl-9-(4-fluorobenzyl)-2-methyl-1-oxa-4,9-diazaspiro[5.6]dodecan-3-one], the Ki is at least 0.5 µM.

`CCN1C[C@@]2(CCCN(Cc3ccc(F)cc3)CC2)O[C@@H](C)C1=O` [Example 65, (2S,6S)-4-ethyl-9-(4-fluorobenzyl)-2-methyl-1-oxa-4,9-diazaspiro[5.6]dodecan-3-one] yielded a Ki of at least 0.5 µM.

`CCN1C[C@]2(CCCN(Cc3ccc(F)cc3)CC2)O[C@@H](C)C1=O` [Example 66, (2S,6R)-4-ethyl-9-(4-fluorobenzyl)-2-methyl-1-oxa-4,9-diazaspiro[5.6]dodecan-3-one] gave a Ki of at least 0.5 µM.

In the case of `CCN1C[C@@]2(CCCN(Cc3ccc(C#N)cc3)CC2)O[C@H](C)C1=O` [Example 67, 4-(((2R,6S)-4-ethyl-2-methyl-3-oxo-1-oxa-4,9-diazaspiro[5.6]dodecan-9-yl)methyl)benzonitrile], the Ki is at least 0.5 µM.

`CCN1C[C@]2(CCCN(Cc3ccc(C#N)cc3)CC2)O[C@H](C)C1=O` [Example 68, 4-(((2R,6R)-4-ethyl-2-methyl-3-oxo-1-oxa-4,9-diazaspiro[5.6]dodecan-9-yl)methyl)benzonitrile]: the Ki was at least 0.5 µM.

In turn, `CCN1C[C@@]2(CCCN(Cc3ccc(C#N)cc3)CC2)O[C@@H](C)C1=O` [Example 69, 4-(((2S,6S)-4-ethyl-2-methyl-3-oxo-1-oxa-4,9-diazaspiro[5.6]dodecan-9-yl)methyl)benzonitrile] came in with a Ki of at least 0.5 µM.

Turning to `CCN1C[C@]2(CCCN(Cc3ccc(C#N)cc3)CC2)O[C@@H](C)C1=O` [Example 70, 4-(((2S,6R)-4-ethyl-2-methyl-3-oxo-1-oxa-4,9-diazaspiro[5.6]dodecan-9-yl)methyl)benzonitrile], the Ki is at least 0.5 µM.

Compound `CN1CC2(CCCN(Cc3ccccc3)CC2)OC2(CC2)C1=O` (centres unmarked) [Example 71, 8-benzyl-13-methyl-4-oxa-8,13-diazadispiro[2.1.6.3]tetradecan-14-one] registered a Ki of at least 0.5 µM.

`CN1CC2(CCCN(Cc3ccc(F)cc3)CC2)OC2(CC2)C1=O` (centres unmarked) [Example 72, 8-(4-fluorobenzyl)-13-methyl-4-oxa-8,13-diazadispiro[2.1.6.3]tetradecan-14-one] came in with a Ki of at least 0.5 µM.

`CN1CC2(CCCN(Cc3ccc(C#N)cc3)CC2)OC2(CC2)C1=O` (centres unmarked) [Example 73, 4-((13-methyl-14-oxo-4-oxa-8,13-diazadispiro[2.1.6.3]tetradecan-8-yl)methyl)benzonitrile]: the Ki is at least 0.5 µM.

`CCN1CC2(CN(CC(C)(C)C)C2)O[C@@H](C)C1=O` [Example 74, (S)-8-ethyl-6-methyl-2-neopentyl-5-oxa-2,8-diazaspiro[3.5]nonan-7-one] came in with a Ki of at least 0.5 µM.

On to `CCN1CC2(CN(CC(C)(C)C)C2)O[C@H](C)C1=O` [Example 75, (R)-8-ethyl-6-methyl-2-neopentyl-5-oxa-2,8-diazaspiro[3.5]nonan-7-one], for which the Ki was at least 0.5 µM.

Consider `CC(C)N1CC2(CN(CC(C)(C)C)C2)O[C@@H](C)C1=O` [Example 76, (S)-8-isopropyl-6-methyl-2-neopentyl-5-oxa-2,8-diazaspiro[3.5]nonan-7-one], for which the Ki is at least 0.5 µM.

In turn, `CC(C)N1CC2(CN(CC(C)(C)C)C2)O[C@H](C)C1=O` [Example 77, (R)-8-isopropyl-6-methyl-2-neopentyl-5-oxa-2,8-diazaspiro[3.5]nonan-7-one] gave a Ki of at least 0.5 µM.

As for `c1ccc(CN2CCCC3(C2)CN(Cc2ccccc2)CC2(CC2)O3)cc1` (centres unmarked) [Example 78, 7,12-dibenzyl-4-oxa-7,12-diazadispiro[2.1.5.3]tridecane], the Ki is under 0.1 µM.

Take `c1ccc(CCN2CCCC3(C2)CN(Cc2ccccc2)CC2(CC2)O3)cc1` (centres unmarked) [Example 79, 12-benzyl-7-phenethyl-4-oxa-7,12-diazadispiro[2.1.5.3]tridecane]: the Ki was under 0.1 µM.

The compound `CC(C)CCN1CCCC2(C1)CN(Cc1ccccc1)CC1(CC1)O2` (centres unmarked) [Example 80, 12-benzyl-7-isopentyl-4-oxa-7,12-diazadispiro[2.1.5.3]tridecane] registered a Ki of under 0.1 µM.

`CC(C)CN1CCCC2(C1)CN(Cc1ccccc1)CC1(CC1)O2` (centres unmarked) [Example 81, 12-benzyl-7-isobutyl-4-oxa-7,12-diazadispiro[2.1.5.3]tridecane]: the Ki is under 0.1 µM.

As for `c1ccc(CN2CCCC3(CC2)CN(Cc2ccccc2)CC2(CC2)O3)cc1` (centres unmarked) [Example 82, 8,13-dibenzyl-4-oxa-8,13-diazadispiro[2.1.6.3]tetradecane], the Ki was under 0.1 µM.

The compound `c1ccc(CCN2CCCC3(CC2)CN(Cc2ccccc2)CC2(CC2)O3)cc1` (centres unmarked) [Example 83, 13-benzyl-8-phenethyl-4-oxa-8,13-diazadispiro[2.1.6.3]tetradecane] yielded a Ki of under 0.1 µM.

The compound `CC(C)CCN1CCCC2(CC1)CN(Cc1ccccc1)CC1(CC1)O2` (centres unmarked) [Example 84, 13-benzyl-8-isopentyl-4-oxa-8,13-diazadispiro[2.1.6.3]tetradecane] had a Ki of under 0.1 µM.

Compound `CC(C)CN1CCCC2(CC1)CN(Cc1ccccc1)CC1(CC1)O2` (centres unmarked) [Example 85, 13-benzyl-8-isobutyl-4-oxa-8,13-diazadispiro[2.1.6.3]tetradecane] registered a Ki of under 0.1 µM.

In turn, `CCN1CC(C)(C)OC2(CCCN(Cc3ccccc3)CC2)C1` (centres unmarked) [Example 86, 9-benzyl-4-ethyl-2,2-dimethyl-1-oxa-4,9-diazaspiro[5.6]dodecane] gave a Ki of under 0.1 µM.

Compound `CCN1CC(C)(C)OC2(CCCN(CCc3ccccc3)CC2)C1` (centres unmarked) [Example 87, 4-ethyl-2,2-dimethyl-9-phenethyl-1-oxa-4,9-diazaspiro[5.6]dodecane] returned a Ki of under 0.1 µM.

Compound `CCN1CC(C)(C)OC2(CCCN(CCC(C)C)CC2)C1` (centres unmarked) [Example 88, 4-ethyl-9-isopentyl-2,2-dimethyl-1-oxa-4,9-diazaspiro[5.6]dodecane] came in with a Ki of under 0.1 µM.
